Experimental data taken from patent publication US8637537B2, “Serine/threonine kinase inhibitors” (Genentech, Inc., priority 2011, dated 2014).
Where two headings read alike, the source gives them in different places.

Experiments:
[1] = target: T1, human recombinant GST-PAK1-KD protein (Homo sapiens, UniProt Q13153); assay: GST-PAK1-KD (kinase domain) biochemical assay, microfluidic mobility shift
T1 construct: residues #249-545 of human PAK1, UniProtKP/Swiss Q13153; His6 (N); made in house; host or cells: Sf9 insect cells, pAcGP67 baculovirus expression vector

[2] = test system: group I PAKs (PAK1-3) in EBC1 cells, MEK1 phosphorylation at S298; assay: Cellular PAK assay: MEK1 (S298) phosphorylation in EBC1 cells, HTRF; format: cell-based; conditions: Homo sapiens, EBC-1, 2 h treatment, Example 66
Procedure: Group I PAKs (PAK1-3) are activated upon binding to the Rho GTPases, Rac1 and Cdc42. […] The inhibition of group I PAKs in EBC1 cells is assessed by detecting changes in the level of MEK1 phosphorylation at S298 using homogenous time-resolved fluorescence (HTRF). […] Following inhibitor treatment, cells were lysed with 25 μL of 1× cellular kinase lysis buffer (Cisbio) containing 1× cellular kinase blocking reagent (Cisbio). Cellular lysis was carried out at 4° C. for 2 h with constant shaking before lysate (16 μL) was transferred to white 384-well ProxiPlates™ (Perkin Elmer).

[3] = GST-PAK1-KD Inhibition Assay - Example 65, read-out: PAK1 inhibition Ki
[4] = Table II, PAK1 Ki class, read-out: Ki

T1 sequence (Q13153 249-545): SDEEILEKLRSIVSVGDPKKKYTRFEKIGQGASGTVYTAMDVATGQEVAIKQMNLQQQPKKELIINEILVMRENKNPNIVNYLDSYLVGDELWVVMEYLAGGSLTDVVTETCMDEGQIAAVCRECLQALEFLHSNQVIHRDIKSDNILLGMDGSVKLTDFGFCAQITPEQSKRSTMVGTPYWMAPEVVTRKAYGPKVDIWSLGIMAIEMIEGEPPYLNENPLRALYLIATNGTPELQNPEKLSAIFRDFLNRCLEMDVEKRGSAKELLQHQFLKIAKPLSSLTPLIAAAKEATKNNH

Row | SMILES | Ki [1, 3] [nM] | Ki [1, 4] [nM] | IC50 [2] [nM]
1 | CN(Cc1ccc2[nH]cnc2c1Cl)c1nccc(Nc2cc(C(F)F)[nH]n2)n1 [II-81, N^2-((4-chloro-1H-benzo[d]imidazol-5-yl)methyl)-N^4-(5-(difluoromethyl)-1H-pyrazol-3-yl)-N^2-methylpyrimidine-2,4-diamine] | 19.7 | < 50 | 235
2 | COCCN(Cc1cc(F)cc2[nH]ncc12)c1nccc(Nc2cc(C3CC3)[nH]n2)n1 [II-94, N^4-(5-cyclopropyl-1H-pyrazol-3-yl)-N^2-((6-fluoro-1H-indazol-4-yl)methyl)-N^2-(2-methoxyethyl)pyrimidine-2,4-diamine] | 36.8 | < 50 | 64.1
3 | CN(Cc1ccc2[nH]cnc2c1)c1nc(Nc2cc(C3CC3)[nH]n2)cc(C(C)(C)O)n1 [II-97, 2-[2-[(1H-Benzoimidazol-5-ylmethyl)-methyl-amino]-6-(5-cyclopropyl-1H-pyrazol-3-ylamino)-pyrimidin-4-yl]-propan-2-ol] | 41.7 | < 50 | 1700
4 | COCCc1cc(Nc2ccnc(N(C)Cc3ccc4[nH]cnc4c3Cl)n2)n[nH]1 [II-102, N^2-((4-chloro-1H-benzo[d]imidazol-5-yl)methyl)-N^4-(5-(2-methoxyethyl)-1H-pyrazol-3-yl)-N^2-methylpyrimidine-2,4-diamine] | 63.3 | 50 to 250 | 1500
